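Compound exposure: 48 hours, 5 concentrations, 96-well plates. At the TGI there is no net growth.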 Where a SMILES comes first, the peptide text is derived from it. [ ]: non-standard residue; d: D form. The star is where a group is joined. ξ: configuration not given here. ξD = NC(CC(=O)O)C(=O)O; Ac3c = NC1(C(=O)O)CC1; Boc = CC(C)(C)OC(=O)*; OBn = c1ccc(CO*)cc1
Assays:
Experiment in all cases: NCI anticancer screen, dose series, 48 h
MCF7 breast = test system: MCF7 breast
NCI-H226 lung = test system: NCI-H226 lung
HCT-15 colon = test system: HCT-15 colon
RPMI-8226 leukemia = test system: RPMI-8226 leukemia
HOP-92 NSCLC = test system: HOP-92 NSCLC
LOX IMVI melanoma = test system: LOX IMVI melanoma
HT29 colon = test system: HT29 colon
ACHN renal = test system: ACHN renal
COLO 205 colon = test system: COLO 205 colon
NCI-H460 lung = test system: NCI-H460 lung
MOLT-4 leukemia = test system: MOLT-4 leukemia
SW-620 colon = test system: SW-620 colon
IGROV1 ovarian = test system: IGROV1 ovarian
HCT-116 colon = test system: HCT-116 colon
OVCAR-4 ovarian = test system: OVCAR-4 ovarian
MDA-MB-231 breast = test system: MDA-MB-231 breast
A498 renal = test system: A498 renal
BT-549 breast = test system: BT-549 breast
CAKI-1 renal = test system: CAKI-1 renal
NCI/ADR-RES ovarian = test system: NCI/ADR-RES ovarian
PC-3 prostate = test system: PC-3 prostate
SNB-75 CNS = test system: SNB-75 CNS
UACC-257 melanoma = test system: UACC-257 melanoma
OVCAR-8 ovarian = test system: OVCAR-8 ovarian
UACC-62 melanoma = test system: UACC-62 melanoma
OVCAR-5 ovarian = test system: OVCAR-5 ovarian
DU-145 prostate = test system: DU-145 prostate
EKVX NSCLC = test system: EKVX NSCLC
MDA-MB-435 = test system: MDA-MB-435
CCRF-CEM leukemia = test system: CCRF-CEM leukemia
SF-539 CNS = test system: SF-539 CNS
K-562 leukemia = test system: K-562 leukemia
NCI-H522 lung = test system: NCI-H522 lung
SNB-19 CNS = test system: SNB-19 CNS
MDA-N = test system: MDA-N
M14 melanoma = test system: M14 melanoma
SK-MEL-5 melanoma = test system: SK-MEL-5 melanoma
SF-295 CNS = test system: SF-295 CNS
MALME-3M melanoma = test system: MALME-3M melanoma
KM12 colon = test system: KM12 colon
RXF 393 renal = test system: RXF 393 renal
UO-31 renal = test system: UO-31 renal
TK-10 renal = test system: TK-10 renal
HOP-62 NSCLC = test system: HOP-62 NSCLC
OVCAR-3 ovarian = test system: OVCAR-3 ovarian
HS 578T breast = test system: HS 578T breast
786-0 renal = test system: 786-0 renal
SN12C renal = test system: SN12C renal
SK-MEL-28 melanoma = test system: SK-MEL-28 melanoma
U251 CNS = test system: U251 CNS
SK-OV-3 ovarian = test system: SK-OV-3 ovarian
NCI-H23 lung = test system: NCI-H23 lung
SF-268 CNS = test system: SF-268 CNS
T-47D breast = test system: T-47D breast
A549 NSCLC = test system: A549 NSCLC
SK-MEL-2 melanoma = test system: SK-MEL-2 melanoma

For `CC(NC(=O)OCc1ccccc1)NC(=O)C(CC(=O)OC(C)(C)C)NC(=O)OC(C)(C)C` (configuration not stated), which TGI (MCF7 breast) is on record?
Its TGI is > 100 µM.

What about the TGI (NCI-H226 lung) of the same molecule?
Its TGI is > 100 µM.

And the TGI (HCT-15 colon)?
Its TGI is > 100 µM.

And the TGI (RPMI-8226 leukemia)?
Its TGI is > 100 µM.

And the TGI (HOP-92 NSCLC)?
Its TGI is > 100 µM.

And the TGI (LOX IMVI melanoma)?
The TGI was > 100 µM.

What about the TGI (HT29 colon) of the same molecule?
The TGI was > 100 µM.

What about the TGI (ACHN renal) of the same molecule?
The TGI was > 100 µM.

And the TGI (COLO 205 colon)?
The TGI was > 100 µM.

What about the TGI (NCI-H460 lung) of the same molecule?
Its TGI is > 100 µM.

What about the TGI (MOLT-4 leukemia) of the same molecule?
Its TGI is > 100 µM.

What about the TGI (SW-620 colon) of the same molecule?
The TGI was > 100 µM.

And the TGI (IGROV1 ovarian)?
The TGI was > 100 µM.

And the TGI (HCT-116 colon)?
The TGI was > 100 µM.

What about the TGI (OVCAR-4 ovarian) of the same molecule?
Its TGI is > 100 µM.

What about the TGI (MDA-MB-231 breast) of the same molecule?
The TGI was > 100 µM.

What about the TGI (A498 renal) of the same molecule?
The TGI was > 100 µM.

And the TGI (BT-549 breast)?
The TGI was > 100 µM.

What about the TGI (CAKI-1 renal) of the same molecule?
The TGI was > 100 µM.

What about the TGI (NCI/ADR-RES ovarian) of the same molecule?
The TGI was > 100 µM.

What about the TGI (PC-3 prostate) of the same molecule?
Its TGI is > 100 µM.

And the TGI (SNB-75 CNS)?
The TGI was > 100 µM.

What about the TGI (UACC-257 melanoma) of the same molecule?
Its TGI is > 100 µM.

And the TGI (OVCAR-8 ovarian)?
Its TGI is > 100 µM.

And the TGI (UACC-62 melanoma)?
Its TGI is > 100 µM.

What about the TGI (OVCAR-5 ovarian) of the same molecule?
Its TGI is > 100 µM.

What about the TGI (DU-145 prostate) of the same molecule?
Its TGI is > 100 µM.

What about the TGI (EKVX NSCLC) of the same molecule?
The TGI was > 100 µM.

What about the TGI (MDA-MB-435) of the same molecule?
The TGI was > 100 µM.

What about the TGI (CCRF-CEM leukemia) of the same molecule?
Its TGI is > 100 µM.

What about the TGI (SF-539 CNS) of the same molecule?
The TGI was > 100 µM.

What about the TGI (K-562 leukemia) of the same molecule?
The TGI was > 100 µM.

And the TGI (NCI-H522 lung)?
Its TGI is > 100 µM.

What about the TGI (SNB-19 CNS) of the same molecule?
The TGI was > 100 µM.

What about the TGI (MDA-N) of the same molecule?
The TGI was > 100 µM.

What about the TGI (M14 melanoma) of the same molecule?
The TGI was > 100 µM.

And the TGI (SK-MEL-5 melanoma)?
Its TGI is > 100 µM.

And the TGI (SF-295 CNS)?
The TGI was > 100 µM.

What about the TGI (MALME-3M melanoma) of the same molecule?
The TGI was > 100 µM.

And the TGI (KM12 colon)?
Its TGI is > 100 µM.

And the TGI (RXF 393 renal)?
Its TGI is > 100 µM.

And the TGI (UO-31 renal)?
Its TGI is > 100 µM.

What about the TGI (TK-10 renal) of the same molecule?
Its TGI is > 100 µM.

And the TGI (HOP-62 NSCLC)?
Its TGI is > 100 µM.

And the TGI (OVCAR-3 ovarian)?
The TGI was > 100 µM.

And the TGI (HS 578T breast)?
Its TGI is > 100 µM.

And the TGI (786-0 renal)?
Its TGI is > 100 µM.

What about the TGI (SN12C renal) of the same molecule?
Its TGI is > 100 µM.

What about the TGI (SK-MEL-28 melanoma) of the same molecule?
Its TGI is > 100 µM.

And the TGI (U251 CNS)?
The TGI was > 100 µM.

What about the TGI (SK-OV-3 ovarian) of the same molecule?
The TGI was > 100 µM.

What about the TGI (NCI-H23 lung) of the same molecule?
Its TGI is > 100 µM.

What about the TGI (SF-268 CNS) of the same molecule?
Its TGI is > 100 µM.

What about the TGI (T-47D breast) of the same molecule?
Its TGI is > 100 µM.

And the TGI (A549 NSCLC)?
The TGI was > 100 µM.

What about the TGI (SK-MEL-2 melanoma) of the same molecule?
Its TGI is > 100 µM.

For `COC(=O)C1(NC(=O)C(CC(=O)OCc2ccccc2)NC(=O)OC(C)(C)C)CC1` (configuration not stated) (Boc-[ξD](OBn)-[Ac3c]-OMe), which TGI (MCF7 breast) is on record?
Its TGI is > 100 µM.

And the TGI (NCI-H226 lung)?
The TGI was > 100 µM.

And the TGI (HCT-15 colon)?
The TGI was > 100 µM.

What about the TGI (RPMI-8226 leukemia) of the same molecule?
The TGI was > 100 µM.

And the TGI (HOP-92 NSCLC)?
Its TGI is > 100 µM.

What about the TGI (LOX IMVI melanoma) of the same molecule?
Its TGI is > 100 µM.

What about the TGI (HT29 colon) of the same molecule?
Its TGI is > 100 µM.

What about the TGI (ACHN renal) of the same molecule?
The TGI was > 100 µM.

And the TGI (COLO 205 colon)?
The TGI was > 100 µM.

What about the TGI (NCI-H460 lung) of the same molecule?
Its TGI is > 100 µM.

And the TGI (MOLT-4 leukemia)?
The TGI was > 100 µM.

What about the TGI (SW-620 colon) of the same molecule?
Its TGI is > 100 µM.

And the TGI (IGROV1 ovarian)?
Its TGI is > 100 µM.

What about the TGI (HCT-116 colon) of the same molecule?
Its TGI is > 100 µM.

And the TGI (OVCAR-4 ovarian)?
Its TGI is > 100 µM.

And the TGI (MDA-MB-231 breast)?
The TGI was > 100 µM.

And the TGI (A498 renal)?
Its TGI is > 100 µM.

What about the TGI (BT-549 breast) of the same molecule?
The TGI was > 100 µM.

What about the TGI (CAKI-1 renal) of the same molecule?
Its TGI is > 100 µM.

What about the TGI (NCI/ADR-RES ovarian) of the same molecule?
The TGI was > 100 µM.

And the TGI (PC-3 prostate)?
The TGI was > 100 µM.

And the TGI (SNB-75 CNS)?
The TGI was > 100 µM.

What about the TGI (UACC-257 melanoma) of the same molecule?
Its TGI is > 100 µM.

What about the TGI (OVCAR-8 ovarian) of the same molecule?
The TGI was > 100 µM.

And the TGI (UACC-62 melanoma)?
Its TGI is 91.7 µM.

What about the TGI (OVCAR-5 ovarian) of the same molecule?
Its TGI is > 100 µM.

And the TGI (DU-145 prostate)?
The TGI was > 100 µM.

And the TGI (EKVX NSCLC)?
The TGI was > 100 µM.

And the TGI (MDA-MB-435)?
Its TGI is > 100 µM.

And the TGI (CCRF-CEM leukemia)?
The TGI was > 100 µM.

What about the TGI (SF-539 CNS) of the same molecule?
The TGI was > 100 µM.

What about the TGI (K-562 leukemia) of the same molecule?
Its TGI is > 100 µM.

What about the TGI (NCI-H522 lung) of the same molecule?
Its TGI is > 100 µM.

And the TGI (SNB-19 CNS)?
The TGI was > 100 µM.

And the TGI (MDA-N)?
Its TGI is > 100 µM.

What about the TGI (M14 melanoma) of the same molecule?
The TGI was > 100 µM.

And the TGI (SK-MEL-5 melanoma)?
Its TGI is > 100 µM.

What about the TGI (SF-295 CNS) of the same molecule?
Its TGI is > 100 µM.

What about the TGI (MALME-3M melanoma) of the same molecule?
The TGI was > 100 µM.

And the TGI (KM12 colon)?
The TGI was > 100 µM.

And the TGI (RXF 393 renal)?
The TGI was > 100 µM.

And the TGI (UO-31 renal)?
Its TGI is > 100 µM.

And the TGI (TK-10 renal)?
Its TGI is > 100 µM.

What about the TGI (HOP-62 NSCLC) of the same molecule?
The TGI was > 100 µM.

And the TGI (OVCAR-3 ovarian)?
The TGI was > 100 µM.

What about the TGI (HS 578T breast) of the same molecule?
Its TGI is > 100 µM.

What about the TGI (786-0 renal) of the same molecule?
Its TGI is > 100 µM.

What about the TGI (SN12C renal) of the same molecule?
The TGI was > 100 µM.

And the TGI (SK-MEL-28 melanoma)?
The TGI was > 100 µM.

What about the TGI (U251 CNS) of the same molecule?
Its TGI is > 100 µM.

And the TGI (SK-OV-3 ovarian)?
Its TGI is 77.4 µM.

What about the TGI (NCI-H23 lung) of the same molecule?
The TGI was > 100 µM.

What about the TGI (SF-268 CNS) of the same molecule?
The TGI was > 100 µM.

What about the TGI (T-47D breast) of the same molecule?
Its TGI is > 100 µM.

And the TGI (A549 NSCLC)?
The TGI was > 100 µM.

And the TGI (SK-MEL-2 melanoma)?
Its TGI is > 100 µM.
